Assay results taken from PMC6409085, “Three odorant-binding proteins are involved in the behavioral response of Sogatella furcifera to rice plant volatiles” (PeerJ, 2019).
Where “and” joins values, the source holds several entries; their conditions need not be identical. Equal values may be shown once.

Experiments:
SfurOBP11 = SfurOBP11 (Sogatella furcifera, UniProt V5T6E3); assay: biochemical; format: binding
Method in brief: (§1)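 Protein 2.0 µM + 1-NPN 2.0 µM, 50 mM Tris-HCl pH 7.4; competitor odorants 2, 4 … 20 µM final; read 2 min post-addition, ex 337/em 390–490 nm; n=3. K1-NPN from 1-NPN titration/Scatchard; Ki from IC50 corrected for free 1-NPN.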

SfurOBP3 = SfurOBP3 (Sogatella furcifera, UniProt V5T818); assay: biochemical; format: binding; conditions: for Fluorescence competitive binding assay, fluorescence intensity: OBP3, three replicate columns
Sequence of SfurOBP3 (V5T818 entry or part of it): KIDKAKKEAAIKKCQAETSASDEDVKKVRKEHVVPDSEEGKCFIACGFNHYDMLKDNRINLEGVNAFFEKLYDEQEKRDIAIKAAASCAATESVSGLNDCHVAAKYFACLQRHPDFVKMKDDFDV
Method in brief: as §1

SfurOBP1 = SfurOBP1 (Sogatella furcifera, UniProt V5T8N5); assay: biochemical; format: binding; conditions: for Fluorescence competitive binding assay, fluorescence intensity: OBP1, three replicate columns
Sequence of SfurOBP1 (V5T8N5 entry or part of it): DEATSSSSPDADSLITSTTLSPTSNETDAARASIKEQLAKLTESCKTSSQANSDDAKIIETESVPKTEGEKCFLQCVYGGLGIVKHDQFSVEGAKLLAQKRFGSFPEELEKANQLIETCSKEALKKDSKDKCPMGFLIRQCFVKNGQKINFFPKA
Method in brief: as §1

SfurOBP2 = SfurOBP2 (Sogatella furcifera, UniProt V5T759); assay: biochemical; format: binding
Sequence of SfurOBP2 (V5T759 entry or part of it): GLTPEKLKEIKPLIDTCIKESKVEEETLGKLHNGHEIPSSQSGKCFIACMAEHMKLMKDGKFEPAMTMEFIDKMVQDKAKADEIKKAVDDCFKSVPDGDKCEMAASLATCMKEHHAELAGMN
Method in brief: as §1

S. furcifera adults = assay: Y-tube olfactometer behavioral trials; format: in vivo, Sogatella furcifera; conditions: odorant 50 µL/L vs hexane; adults
Method in brief: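 Single S. furcifera adults (2 days post-emergence, starved 0.5 h) chose between odorant (100 µL of 50 µL/L on filter paper) and hexane control in a glass Y-tube, charcoal-filtered humidified air 300 mL/min per arm, 25 ± 1 °C, 50% RH. Choice scored if insect passed half an arm and stayed >1 min within 10 min; 45 insects per compound, chi-squared test.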

Sequence of SfurOBP11 (V5T6E3 entry or part of it): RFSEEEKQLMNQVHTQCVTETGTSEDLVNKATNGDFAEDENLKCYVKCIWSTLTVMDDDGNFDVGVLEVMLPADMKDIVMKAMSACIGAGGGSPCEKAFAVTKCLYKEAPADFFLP

Substance: 2-heptanonol
- IC50 (SfurOBP11; SfurOBP11, protein and 1-NPN both 2.0 µM, competitor 2-20 µM, read-out: IC50): > 20 µM
- Fluorescence intensity, fluorescence competitive binding assay, OBP11 (SfurOBP11; ligand concentration 2, replicate 1): 32214
- Fluorescence intensity, fluorescence competitive binding assay, OBP11 (SfurOBP11; ligand concentration 2, replicate 2): 33277
- Fluorescence intensity, fluorescence competitive binding assay, OBP11 (SfurOBP11; ligand concentration 2, replicate 3): 35354
- Fluorescence intensity, fluorescence competitive binding assay, OBP11 (SfurOBP11; ligand concentration 4, replicate 1): 33125
- Fluorescence intensity, fluorescence competitive binding assay, OBP11 (SfurOBP11; ligand concentration 4, replicate 2): 35054
- Fluorescence intensity, fluorescence competitive binding assay, OBP11 (SfurOBP11; ligand concentration 4, replicate 3): 33696
- Fluorescence intensity, fluorescence competitive binding assay, OBP11 (SfurOBP11; ligand concentration 6, replicate 1): 31772
- Fluorescence intensity, fluorescence competitive binding assay, OBP11 (SfurOBP11; ligand concentration 6, replicate 2): 31091
- Fluorescence intensity, fluorescence competitive binding assay, OBP11 (SfurOBP11; ligand concentration 6, replicate 3): 33532
- Fluorescence intensity, fluorescence competitive binding assay, OBP11 (SfurOBP11; ligand concentration 8, replicate 1): 28812
- Fluorescence intensity, fluorescence competitive binding assay, OBP11 (SfurOBP11; ligand concentration 8, replicate 2): 31104
- Fluorescence intensity, fluorescence competitive binding assay, OBP11 (SfurOBP11; ligand concentration 8, replicate 3): 31825
- Fluorescence intensity, fluorescence competitive binding assay, OBP11 (SfurOBP11; ligand concentration 10, replicate 1): 28521
- Fluorescence intensity, fluorescence competitive binding assay, OBP11 (SfurOBP11; ligand concentration 10, replicate 2): 30054
- Fluorescence intensity, fluorescence competitive binding assay, OBP11 (SfurOBP11; ligand concentration 10, replicate 3): 29747
- Fluorescence intensity, fluorescence competitive binding assay, OBP11 (SfurOBP11; ligand concentration 12, replicate 1): 26176
- Fluorescence intensity, fluorescence competitive binding assay, OBP11 (SfurOBP11; ligand concentration 12, replicate 2): 26507
- Fluorescence intensity, fluorescence competitive binding assay, OBP11 (SfurOBP11; ligand concentration 12, replicate 3): 26325
- Fluorescence intensity, fluorescence competitive binding assay, OBP11 (SfurOBP11; ligand concentration 14, replicate 1): 24809
- Fluorescence intensity, fluorescence competitive binding assay, OBP11 (SfurOBP11; ligand concentration 14, replicate 2): 27546
- Fluorescence intensity, fluorescence competitive binding assay, OBP11 (SfurOBP11; ligand concentration 14, replicate 3): 28489
- Fluorescence intensity, fluorescence competitive binding assay, OBP11 (SfurOBP11; ligand concentration 16, replicate 1): 22169
- Fluorescence intensity, fluorescence competitive binding assay, OBP11 (SfurOBP11; ligand concentration 16, replicate 2): 21457
- Fluorescence intensity, fluorescence competitive binding assay, OBP11 (SfurOBP11; ligand concentration 16, replicate 3): 24839
- Fluorescence intensity, fluorescence competitive binding assay, OBP11 (SfurOBP11; ligand concentration 18, replicate 1): 29523
- Fluorescence intensity, fluorescence competitive binding assay, OBP11 (SfurOBP11; ligand concentration 18, replicate 2): 28673
- Fluorescence intensity, fluorescence competitive binding assay, OBP11 (SfurOBP11; ligand concentration 18, replicate 3): 27420
- Fluorescence intensity, fluorescence competitive binding assay, OBP11 (SfurOBP11; ligand concentration 20, replicate 1): 25385
- Fluorescence intensity, fluorescence competitive binding assay, OBP11 (SfurOBP11; ligand concentration 20, replicate 2): 25884
- Fluorescence intensity, fluorescence competitive binding assay, OBP11 (SfurOBP11; ligand concentration 20, replicate 3): 25605
- Fluorescence competitive binding assay, fluorescence intensity (SfurOBP3; ligand concentration 2): 45232 and 45869 and 44594
- Fluorescence competitive binding assay, fluorescence intensity (SfurOBP3; ligand concentration 4): 45996 and 44453 and 43020
- Fluorescence competitive binding assay, fluorescence intensity (SfurOBP3; ligand concentration 6): 47391 and 47743 and 47567
- Fluorescence competitive binding assay, fluorescence intensity (SfurOBP3; ligand concentration 8): 48801 and 50407 and 49604
- Fluorescence competitive binding assay, fluorescence intensity (SfurOBP3; ligand concentration 10): 51610 and 62768 and 47878
- Fluorescence competitive binding assay, fluorescence intensity (SfurOBP3; ligand concentration 12): 54498 and 52011 and 51877
- Fluorescence competitive binding assay, fluorescence intensity (SfurOBP3; ligand concentration 14): 42842 (2×) and 42142
- Fluorescence competitive binding assay, fluorescence intensity (SfurOBP3; ligand concentration 16): 41166 and 44357 and 42754
- Fluorescence competitive binding assay, fluorescence intensity (SfurOBP3; ligand concentration 18): 42621 and 43724 and 41536
- Fluorescence competitive binding assay, fluorescence intensity (SfurOBP3; ligand concentration 20): 45786 and 37456 and 39383
- IC50 (SfurOBP3; SfurOBP3, protein and 1-NPN both 2.0 µM, competitor 2-20 µM, read-out: IC50): > 20 µM
- Fluorescence competitive binding assay, fluorescence intensity (SfurOBP1; ligand concentration 2 (μM)): 5887 and 5646 and 5767
- Fluorescence competitive binding assay, fluorescence intensity (SfurOBP1; ligand concentration 4 (μM)): 7288 and 7577 and 6996
- Fluorescence competitive binding assay, fluorescence intensity (SfurOBP1; ligand concentration 6 (μM)): 5995 and 5950 and 6027
- Fluorescence competitive binding assay, fluorescence intensity (SfurOBP1; ligand concentration 8 (μM)): 7072 and 6140 and 5704
- Fluorescence competitive binding assay, fluorescence intensity (SfurOBP1; ligand concentration 10 (μM)): 8690 and 6215 and 5653
- Fluorescence competitive binding assay, fluorescence intensity (SfurOBP1; ligand concentration 12 (μM)): 7048 and 7677 and 6537
- Fluorescence competitive binding assay, fluorescence intensity (SfurOBP1; ligand concentration 14 (μM)): 6232 and 8602 and 7115
- Fluorescence competitive binding assay, fluorescence intensity (SfurOBP1; ligand concentration 16 (μM)): 5533 and 5298 and 5778
- Fluorescence competitive binding assay, fluorescence intensity (SfurOBP1; ligand concentration 18 (μM)): 5895 and 6061 and 6136
- Fluorescence competitive binding assay, fluorescence intensity (SfurOBP1; ligand concentration 20 (μM)): 5784 and 5580 and 5212
- IC50 (SfurOBP1; SfurOBP1, protein and 1-NPN both 2.0 µM, competitor 2-20 µM, read-out: IC50): > 20 µM
- IC50 (SfurOBP2; SfurOBP2, protein and 1-NPN both 2.0 µM, competitor 2-20 µM, read-out: IC50): > 20 µM
- Fluorescence competitive binding assay, OBP2 (raw fluorescence reading) (SfurOBP2; ligand concentration 2 (unit not given), replicate column 1 of 3): 18612
- Fluorescence competitive binding assay, OBP2 (raw fluorescence reading) (SfurOBP2; ligand concentration 2 (unit not given), replicate column 2 of 3): 18747
- Fluorescence competitive binding assay, OBP2 (raw fluorescence reading) (SfurOBP2; ligand concentration 2 (unit not given), replicate column 3 of 3): 19681
- Fluorescence competitive binding assay, OBP2 (raw fluorescence reading) (SfurOBP2; ligand concentration 4 (unit not given), replicate column 1 of 3): 19302
- Fluorescence competitive binding assay, OBP2 (raw fluorescence reading) (SfurOBP2; ligand concentration 4 (unit not given), replicate column 2 of 3): 19993
- Fluorescence competitive binding assay, OBP2 (raw fluorescence reading) (SfurOBP2; ligand concentration 4 (unit not given), replicate column 3 of 3): 20683
- Fluorescence competitive binding assay, OBP2 (raw fluorescence reading) (SfurOBP2; ligand concentration 6 (unit not given), replicate column 1 of 3): 18811
- Fluorescence competitive binding assay, OBP2 (raw fluorescence reading) (SfurOBP2; ligand concentration 6 (unit not given), replicate column 2 of 3): 18736
- Fluorescence competitive binding assay, OBP2 (raw fluorescence reading) (SfurOBP2; ligand concentration 6 (unit not given), replicate column 3 of 3): 18774
- Fluorescence competitive binding assay, OBP2 (raw fluorescence reading) (SfurOBP2; ligand concentration 8 (unit not given), replicate column 1 of 3): 16468
- Fluorescence competitive binding assay, OBP2 (raw fluorescence reading) (SfurOBP2; ligand concentration 8 (unit not given), replicate column 2 of 3): 16720
- Fluorescence competitive binding assay, OBP2 (raw fluorescence reading) (SfurOBP2; ligand concentration 8 (unit not given), replicate column 3 of 3): 16981
- Fluorescence competitive binding assay, OBP2 (raw fluorescence reading) (SfurOBP2; ligand concentration 10 (unit not given), replicate column 1 of 3): 16986
- Fluorescence competitive binding assay, OBP2 (raw fluorescence reading) (SfurOBP2; ligand concentration 10 (unit not given), replicate column 2 of 3): 17111
- Fluorescence competitive binding assay, OBP2 (raw fluorescence reading) (SfurOBP2; ligand concentration 10 (unit not given), replicate column 3 of 3): 16240
- Fluorescence competitive binding assay, OBP2 (raw fluorescence reading) (SfurOBP2; ligand concentration 12 (unit not given), replicate column 1 of 3): 16820
- Fluorescence competitive binding assay, OBP2 (raw fluorescence reading) (SfurOBP2; ligand concentration 12 (unit not given), replicate column 2 of 3): 17596
- Fluorescence competitive binding assay, OBP2 (raw fluorescence reading) (SfurOBP2; ligand concentration 12 (unit not given), replicate column 3 of 3): 18083
- Fluorescence competitive binding assay, OBP2 (raw fluorescence reading) (SfurOBP2; ligand concentration 14 (unit not given), replicate column 1 of 3): 17387
- Fluorescence competitive binding assay, OBP2 (raw fluorescence reading) (SfurOBP2; ligand concentration 14 (unit not given), replicate column 2 of 3): 16676
- Fluorescence competitive binding assay, OBP2 (raw fluorescence reading) (SfurOBP2; ligand concentration 14 (unit not given), replicate column 3 of 3): 18097
- Fluorescence competitive binding assay, OBP2 (raw fluorescence reading) (SfurOBP2; ligand concentration 16 (unit not given), replicate column 1 of 3): 16472
- Fluorescence competitive binding assay, OBP2 (raw fluorescence reading) (SfurOBP2; ligand concentration 16 (unit not given), replicate column 2 of 3): 16454
- Fluorescence competitive binding assay, OBP2 (raw fluorescence reading) (SfurOBP2; ligand concentration 16 (unit not given), replicate column 3 of 3): 17500
- Fluorescence competitive binding assay, OBP2 (raw fluorescence reading) (SfurOBP2; ligand concentration 18 (unit not given), replicate column 1 of 3): 16574
- Fluorescence competitive binding assay, OBP2 (raw fluorescence reading) (SfurOBP2; ligand concentration 18 (unit not given), replicate column 2 of 3): 16302
- Fluorescence competitive binding assay, OBP2 (raw fluorescence reading) (SfurOBP2; ligand concentration 18 (unit not given), replicate column 3 of 3): 16787
- Fluorescence competitive binding assay, OBP2 (raw fluorescence reading) (SfurOBP2; ligand concentration 20 (unit not given), replicate column 1 of 3): 15630
- Fluorescence competitive binding assay, OBP2 (raw fluorescence reading) (SfurOBP2; ligand concentration 20 (unit not given), replicate column 2 of 3): 15665
- Fluorescence competitive binding assay, OBP2 (raw fluorescence reading) (SfurOBP2; ligand concentration 20 (unit not given), replicate column 3 of 3): 15648
- number of insects choosing hexane arm (S. furcifera adults): 13
- number of insects choosing volatilies arm (S. furcifera adults): 16
- number of insects failed (no choice) (S. furcifera adults): 13
